{"source": "patent US20120302530A1", "about": "“23-HYDROXY-BETULINIC ACID DERIVATIVES, PREPARATION METHODS AND USES THEREOF” (priority 2009, published 2012)", "key": {"[1]": {"test": "Side effects in the xenograft studies", "settings": "tumor-bearing nude mice, 30 mg/kg oral", "description": "(§1) (7) Drug administration of human tumor xenograft model and nude mice tumor transplantation model: (see Harrison S D Jr; Growth of human tumor cells in athymic mice; J Natl Cancer Inst. 1991 Oct. 16; 83 (20): 1509).\n(§2) T cell deficiency nude mice (nu/nu) (male, 6-week old) are bought from Charles River Lab, and are raised in pathogen-free environment according to guidelines of animal raising and using committee of university. The number of […] LNCaP, NCI-H23, HCT-116, G-361 and U-251 cells are suspended in 0.2 ml HBSS or matrigel (50: 50, v/v), and are subcutaneously vaccinated to the side abdomen region of the mice. When the average diameters of the tumors are 7˜8 mm, the mice having tumor size of 100˜200 mm3 are chosen, and are given with treatment group of compound zhangnan-5 prepared with corn oil and are only given with control group of empty carrier (corn oil), respectively.\n(§3) In the oral feeding test, the compound zhangnan-5 (30 mg/kg) is dissolved in corn oil. Each day the mice are tube fed with 200 μl drug liquid in single dose (prepared with corn oil, containing 0.75 mg compound zhangnan-5) for 5 times a week and for 3 weeks. The control group is given placebo (corn oil) according to same method. The mice are raised separately, and are allowed to self-help feeding."}, "[2]": {"test": "Acute toxicity of zhangnan-5 to mice upon feeding", "assay_type": "in vivo, BlebC mice", "description": "(6) Research on the acute toxicity of compound zhangnan-5 to mice upon feeding the drug: (see Gol'dberg L E, Stepanova E S, Vertogradova T P, Shevniuk L A, Shepelevtseva G. Preclinical toxicological study of the new antibiotic eremomycin. Its acute toxicity for laboratory animals, Antibiot Med Biotekhnol. 1987, 32 (12): 910-5).\nTwo groups of 8-week old BlebC mice are taken, and each group has 10 mice (five male and five female). The mice are fed with the compound zhangnan-5 (prepared with corn oil or carrier) in single dose 500 mg/kg and in multi-dose 200 mg/kg (QDX15), respectively. Then, observation is made to the mice for 1 week and 4 week, respectively. The mice are weighted every other day. When the test is over, the tested mice are killed for pathological analysis. […] Thus, the compound zhangnan-5 has great potential to be developed as a new antineoplastic drug of wide spectrum. The compound zhangnan-5 can be used as drug substance of anti-tumor drugs, preferably used as drug substance of anti-malignant solid tumor drugs. The compound zhangnan-5 can also be used with drug carrier and/or excipient to make anti-tumor drug. The drug carrier and/or excipient can be, for example, corn oil, sodium carboxymethylcellulose, and the like."}, "[3]": {"system": "human colon cancer cell HCT-116", "test": "Human tumor xenograft model in nude mice", "assay_type": "in vivo, nude mice (nu/nu)", "settings": "HCT-116 xenograft, 30 mg/kg oral, 5 times a week for 3 weeks, end point 4 weeks; low = active", "description": "as §1, §2, §3\n(§4) The tumor is measured in two vertical directions every 3˜4 days."}, "[4]": {"system": "human prostate cancer cell LnCAP", "test": "Human tumor xenograft model in nude mice", "assay_type": "in vivo, nude mice (nu/nu)", "settings": "30 mg/kg oral, 5 times a week for 3 weeks, end point 4 weeks, low = active", "description": "as §1, §2, §3, §4"}, "[5]": {"system": "human lung cancer cell NCI-H23", "test": "Human tumor xenograft model in nude mice", "assay_type": "in vivo, nude mice (nu/nu)", "settings": "30 mg/kg oral, 5 times a week for 3 weeks, end point 4 weeks, low = active", "description": "as §1, §2, §3, §4"}, "[6]": {"system": "human melanoma cell G-361", "test": "Human tumor xenograft model in nude mice", "assay_type": "in vivo, nude mice (nu/nu)", "settings": "G-361 xenograft, 30 mg/kg oral, 5 times a week for 3 weeks, end point 4 weeks; low = active", "description": "as §1, §2, §3, §4"}, "[7]": {"system": "human malignant glioma cell U-251", "test": "Human tumor xenograft model in nude mice", "assay_type": "in vivo, nude mice (nu/nu)", "settings": "U-251 xenograft, 30 mg/kg oral, 5 times a week for 3 weeks, end point 4 weeks; low = active", "description": "as §1, §2, §3, §4"}}}
{"smiles": "C=C(C)C1CCC2(C(=O)O)CCC3(C)C(CCC4C5(C)CCC(=O)C(C)(CO)C5CCC43C)C12", "note": "(stereo not drawn) [zhangnan-5]", "values": [{"measurement": "side effects, including changes in weight", "setting": "[1]", "result": "no obvious side effects have been found"}, {"measurement": "toxicity, multi-dose", "setting": "[2]; fed, multi-dose 200 mg/kg (QDX15), observed 4 week", "result": "no toxicity is observed"}, {"measurement": "acute toxicity", "setting": "[2]; fed, single dose 500 mg/kg, observed 1 week", "result": "no toxicity is observed"}, {"measurement": "mortality", "setting": "[2]; single dose 500 mg/kg and multi-dose 200 mg/kg (QDX15)", "result": "no single death"}, {"measurement": "TGI (T/C×100 of relative tumor volume)", "setting": "[3]", "result": 6.9, "unit": "%"}, {"measurement": "T/C of relative tumor volume (%)", "setting": "[4]", "result": 5, "unit": "%"}, {"measurement": "TGI (T/C×100 of relative tumor volume)", "setting": "[5]", "result": 0, "unit": "%"}, {"measurement": "TGI (T/C×100 of relative tumor volume)", "setting": "[6]", "result": 10.8, "unit": "%"}, {"measurement": "T/C of relative tumor volume (treated/control × 100)", "setting": "[7]", "result": 12.5, "unit": "%"}]}
